Here are results for two compounds from patent US20260373164A1, “4(RS)-4-F4-NEUROPROSTANE DERIVATIVES (4-F4T-NEUROP) AND THEIR USE IN TREATING VENTILATOR INDUCED DIAPHRAGMATIC DYSFUNCTION AND OTHER DISEASES” (INSTITUT NATIONAL DE LA SANTÉ ET DE LA RECHERCHE MÉDICALE, priority 2022, published 2026).

“Also recorded” adds a separate entry of the source.

One series relates to RyR2. To be noted: cited from earlier work.
Another series has as its system mouse diaphragm (VIDD). The series is described as follows: Diaphragm force-frequency relationship after 6 h of mechanical ventilation (murine model of VIDD). In kind it is in vivo, C57/BL6 mice. The note with it: for prevention of VIDD in murine model: general statement; for prevention of VIDD in murine model / protection against mechanical ventilation (force-frequency relationship): mice; for protection against mechanical ventilation (force-frequency relationship): IV. The protocol:
35 adult male mice (10 to 12 weeks old, 25 to 30 g) C57/BL6 mice were separated into five groups. Three groups were intubated with a 22-gauge angio-catheter and mechanically ventilated for 6 consecutive hours using a volume-driven small-animal ventilator (Minivent®, Harvard Apparatus, Saint-Laurent, Canada). Tidal volume was established at […] body weight with a respiratory rate of 150 breaths/min, a positive end-expiratory pressure (PEEP) level from 2 to 4 cm H2O and a fraction of inspired oxygen of 0.21. Non-spontaneous ventilation was defined as a lack of diaphragm contractile activity attested by repetitive stereotypical deflections observed in the airway pressure curve.
The mice were divided into two groups. The first group (control) received methanol, at the volume corresponding to the equivalent volume brought with 4F4t-NeuroP, intravenously (IV) infused over a 5-minute period, 20 minutes before start of MV. The second group of mice received 4F4t-NeuroP intravenously (IV) infused over a 5-minute period, 20 minutes before start of MV. The two groups were intubated and treated in an identical manner (see Matecki et al., 2016 for details^15).
At the end of the protocol of MV, the entire diaphragm was surgically excised and mice were euthanized, by exsanguination. Isometric contractile properties were assessed as described previously in detail (Matecki et al., 2016^15). The excised diaphragm strip was mounted into jacketed tissue bath chambers filled with equilibrated and oxygenated Krebs solution. The muscles were supra-maximally stimulated using square wave pulses (Model S48; Grass Instruments, West Warwick, RI). The force-frequency relationship was determined by sequentially stimulating the muscles for 600 ms at 10, 20, 30, 50, 60, 80, 100 and 120 Hz with 1 minute between each stimulation train. After measurement of contractile properties, muscles were measured at Lo (the length at which the muscle produced maximal isometric tension), dried and weighted. For comparative purposes, diaphragmatic force production was normalized for total muscle strip cross-sectional area and expressed in N·cm^−2. The total muscle strip cross-sectional area was determined by dividing muscle weight by its length and tissue density (1.056 g/cm^3).
Mice were anesthetized and mechanically ventilated for 6 hours. Mice were randomized to receive or not at the beginning of the ventilation a single IV injection of 4F4t-NeuroP at concentrations ranging from 0.01-100 μM to build a dose-response curve of the force-frequency relationship in order to define the optimal concentration.
As for 4F4t-NeuroP, VB558 was injected intravenously into the mouse at a concentration of 1 and 10 μM before ventilating the mice for 6 hours.

For series [1], the system named is mouse diaphragm muscle fibers. Briefly: Diaphragm muscle fibre atrophy (cross section area, fibre type) after 12 hours of mechanical ventilation in mice. In kind it is in vivo. To be noted: 10 μM, 12 h MV. As to the method: FIG. 3: A. Force frequency relationship of mice diaphragm muscle, after 12 hours of mechanical ventilation, treated or not with 10 μM 4F4t-NeuroP. […] Representative immunostaining of fast and slow diaphragm muscle fibers in mouse. Antibodies against fast- and slow-type myosin ATPase were used to perform immunostaining on cryosections of mouse diaphragm. Muscle membrane was counterstained with dystrophin antibodies. The staining was performed in diaphragm muscle 12 h after MV with or without 4F4t-NeuroP. Average cross-section area was quantified in each condition including all fibre type (B.) or by discriminating slow versus fast fibres (C.). D. Average distribution of Fast versus Slow twitch fibres in each condition. (*p<0.05 vs control)
6 hours of MV remains a rather short time of ventilation which represents a particular interest to explore proximal pathophysiological mechanisms of VIDD. As previously reported, 6 hours of mechanical ventilation is able to induce force deficit without histological alterations. However, 12 hours of mechanical ventilation can induce muscle atrophy by a mechanism mediated by RyR1 dependent SR Ca^2+-leak. The inventors therefore tested here the beneficial effect of 4F4t-NeuroP after 12 hours of mechanical ventilation.

A further series deals with T1, RyR1 (Mus musculus, UniProt E9PZQ0).
T1 construct: Fluo-4 Ca2+ sparks
The series is described as follows: Ca2+ sparks frequency in saponin skinned EDL muscle fibres of post myocardial infarction (PMI) mice. Format: cell-based. The note with it: 1 μM 4F4t-NeuroP, acute incubation; EDL fibres from PMI mice.

The nature of series [2]: Pharmacokinetic study in pigs, plasmatic concentration after IV bolus. Format: in vivo, piglets. The note with it: single IV bolus 0.250 mg·kg^−1, 3 pigs. As to the method: In a first set of experiment, a pharmacokinetic study was performed on 3 control pig injected with a single bolus of VB558 (0.250 mg·kg^−1). Blood samples were collected every regularly during 12 hours to evaluate the plasmatic concentration of VB558. […] In order to test the preventing effect of VB558 in the piglet model, the protocol of IV injection was slightly adapted to the duration of the mechanical ventilation (i.e 72 hours). The inventors injected a bolus of 0.250 mg·kg^−1 then a maintenance dose of 0.025 mg·kg^−1 every 12 hours (FIG. 5B). The VB558 group was compared to a group of piglets (placebo) receiving the same amount of solvent (methanol) (FIG. 5B).

In series [3] the test system is ventricular cardiomyocytes derived from DMD hIPSc (RyR2). The series is described as follows: Diastolic level of calcium in ventricular cardiomyocytes derived from DMD hIPSc (indo-1). Format: cell-based, human. As to the method:
FIG. 6: Effect of Hexanor on the diastolic level of Calcium in ventricular cardiomyocytes derived from DMD and control hIPSc. The cardiomyocytes were loaded with indo-1 to assess in a ratiometric manner the intracellular level of calcium. […] A. The level of calcium is higher in DMD compared to control cells. This is prevented by hexanor (1 μM).
The inventors then tested the impact of VB558 on the diastolic level of Calcium in ventricular cardiomyocytes derived from Duchenne muscular dystrophy (DMD).

The test system of another series is prostanoid receptors. The series is described as follows: In vitro binding assay on prostanoid receptors (agonist or antagonist effect). To be noted: effects higher than 50% considered significant. The text has this:
Prostaglandin (or prostanoid) receptors represent a family of cell surface membrane receptors known to bind and respond principally to metabolites of the polyunsaturated fatty acid (PUFA), arachidonic acid. As some of them are known to modulate cAMP production or intracellular calcium concentration, and based on the chemical structure of neuroprostanes (i.e DHA derivatives), the inventors performed an in vitro binding assay to specifically evaluate the potential agonist or antagonist effect of VB558 on established prostanoid receptors. Results showing an inhibition (or stimulation for assays run in basal conditions) higher than 50% are considered to represent significant effects of the test compounds.

T1 sequence (E9PZQ0 whole entry): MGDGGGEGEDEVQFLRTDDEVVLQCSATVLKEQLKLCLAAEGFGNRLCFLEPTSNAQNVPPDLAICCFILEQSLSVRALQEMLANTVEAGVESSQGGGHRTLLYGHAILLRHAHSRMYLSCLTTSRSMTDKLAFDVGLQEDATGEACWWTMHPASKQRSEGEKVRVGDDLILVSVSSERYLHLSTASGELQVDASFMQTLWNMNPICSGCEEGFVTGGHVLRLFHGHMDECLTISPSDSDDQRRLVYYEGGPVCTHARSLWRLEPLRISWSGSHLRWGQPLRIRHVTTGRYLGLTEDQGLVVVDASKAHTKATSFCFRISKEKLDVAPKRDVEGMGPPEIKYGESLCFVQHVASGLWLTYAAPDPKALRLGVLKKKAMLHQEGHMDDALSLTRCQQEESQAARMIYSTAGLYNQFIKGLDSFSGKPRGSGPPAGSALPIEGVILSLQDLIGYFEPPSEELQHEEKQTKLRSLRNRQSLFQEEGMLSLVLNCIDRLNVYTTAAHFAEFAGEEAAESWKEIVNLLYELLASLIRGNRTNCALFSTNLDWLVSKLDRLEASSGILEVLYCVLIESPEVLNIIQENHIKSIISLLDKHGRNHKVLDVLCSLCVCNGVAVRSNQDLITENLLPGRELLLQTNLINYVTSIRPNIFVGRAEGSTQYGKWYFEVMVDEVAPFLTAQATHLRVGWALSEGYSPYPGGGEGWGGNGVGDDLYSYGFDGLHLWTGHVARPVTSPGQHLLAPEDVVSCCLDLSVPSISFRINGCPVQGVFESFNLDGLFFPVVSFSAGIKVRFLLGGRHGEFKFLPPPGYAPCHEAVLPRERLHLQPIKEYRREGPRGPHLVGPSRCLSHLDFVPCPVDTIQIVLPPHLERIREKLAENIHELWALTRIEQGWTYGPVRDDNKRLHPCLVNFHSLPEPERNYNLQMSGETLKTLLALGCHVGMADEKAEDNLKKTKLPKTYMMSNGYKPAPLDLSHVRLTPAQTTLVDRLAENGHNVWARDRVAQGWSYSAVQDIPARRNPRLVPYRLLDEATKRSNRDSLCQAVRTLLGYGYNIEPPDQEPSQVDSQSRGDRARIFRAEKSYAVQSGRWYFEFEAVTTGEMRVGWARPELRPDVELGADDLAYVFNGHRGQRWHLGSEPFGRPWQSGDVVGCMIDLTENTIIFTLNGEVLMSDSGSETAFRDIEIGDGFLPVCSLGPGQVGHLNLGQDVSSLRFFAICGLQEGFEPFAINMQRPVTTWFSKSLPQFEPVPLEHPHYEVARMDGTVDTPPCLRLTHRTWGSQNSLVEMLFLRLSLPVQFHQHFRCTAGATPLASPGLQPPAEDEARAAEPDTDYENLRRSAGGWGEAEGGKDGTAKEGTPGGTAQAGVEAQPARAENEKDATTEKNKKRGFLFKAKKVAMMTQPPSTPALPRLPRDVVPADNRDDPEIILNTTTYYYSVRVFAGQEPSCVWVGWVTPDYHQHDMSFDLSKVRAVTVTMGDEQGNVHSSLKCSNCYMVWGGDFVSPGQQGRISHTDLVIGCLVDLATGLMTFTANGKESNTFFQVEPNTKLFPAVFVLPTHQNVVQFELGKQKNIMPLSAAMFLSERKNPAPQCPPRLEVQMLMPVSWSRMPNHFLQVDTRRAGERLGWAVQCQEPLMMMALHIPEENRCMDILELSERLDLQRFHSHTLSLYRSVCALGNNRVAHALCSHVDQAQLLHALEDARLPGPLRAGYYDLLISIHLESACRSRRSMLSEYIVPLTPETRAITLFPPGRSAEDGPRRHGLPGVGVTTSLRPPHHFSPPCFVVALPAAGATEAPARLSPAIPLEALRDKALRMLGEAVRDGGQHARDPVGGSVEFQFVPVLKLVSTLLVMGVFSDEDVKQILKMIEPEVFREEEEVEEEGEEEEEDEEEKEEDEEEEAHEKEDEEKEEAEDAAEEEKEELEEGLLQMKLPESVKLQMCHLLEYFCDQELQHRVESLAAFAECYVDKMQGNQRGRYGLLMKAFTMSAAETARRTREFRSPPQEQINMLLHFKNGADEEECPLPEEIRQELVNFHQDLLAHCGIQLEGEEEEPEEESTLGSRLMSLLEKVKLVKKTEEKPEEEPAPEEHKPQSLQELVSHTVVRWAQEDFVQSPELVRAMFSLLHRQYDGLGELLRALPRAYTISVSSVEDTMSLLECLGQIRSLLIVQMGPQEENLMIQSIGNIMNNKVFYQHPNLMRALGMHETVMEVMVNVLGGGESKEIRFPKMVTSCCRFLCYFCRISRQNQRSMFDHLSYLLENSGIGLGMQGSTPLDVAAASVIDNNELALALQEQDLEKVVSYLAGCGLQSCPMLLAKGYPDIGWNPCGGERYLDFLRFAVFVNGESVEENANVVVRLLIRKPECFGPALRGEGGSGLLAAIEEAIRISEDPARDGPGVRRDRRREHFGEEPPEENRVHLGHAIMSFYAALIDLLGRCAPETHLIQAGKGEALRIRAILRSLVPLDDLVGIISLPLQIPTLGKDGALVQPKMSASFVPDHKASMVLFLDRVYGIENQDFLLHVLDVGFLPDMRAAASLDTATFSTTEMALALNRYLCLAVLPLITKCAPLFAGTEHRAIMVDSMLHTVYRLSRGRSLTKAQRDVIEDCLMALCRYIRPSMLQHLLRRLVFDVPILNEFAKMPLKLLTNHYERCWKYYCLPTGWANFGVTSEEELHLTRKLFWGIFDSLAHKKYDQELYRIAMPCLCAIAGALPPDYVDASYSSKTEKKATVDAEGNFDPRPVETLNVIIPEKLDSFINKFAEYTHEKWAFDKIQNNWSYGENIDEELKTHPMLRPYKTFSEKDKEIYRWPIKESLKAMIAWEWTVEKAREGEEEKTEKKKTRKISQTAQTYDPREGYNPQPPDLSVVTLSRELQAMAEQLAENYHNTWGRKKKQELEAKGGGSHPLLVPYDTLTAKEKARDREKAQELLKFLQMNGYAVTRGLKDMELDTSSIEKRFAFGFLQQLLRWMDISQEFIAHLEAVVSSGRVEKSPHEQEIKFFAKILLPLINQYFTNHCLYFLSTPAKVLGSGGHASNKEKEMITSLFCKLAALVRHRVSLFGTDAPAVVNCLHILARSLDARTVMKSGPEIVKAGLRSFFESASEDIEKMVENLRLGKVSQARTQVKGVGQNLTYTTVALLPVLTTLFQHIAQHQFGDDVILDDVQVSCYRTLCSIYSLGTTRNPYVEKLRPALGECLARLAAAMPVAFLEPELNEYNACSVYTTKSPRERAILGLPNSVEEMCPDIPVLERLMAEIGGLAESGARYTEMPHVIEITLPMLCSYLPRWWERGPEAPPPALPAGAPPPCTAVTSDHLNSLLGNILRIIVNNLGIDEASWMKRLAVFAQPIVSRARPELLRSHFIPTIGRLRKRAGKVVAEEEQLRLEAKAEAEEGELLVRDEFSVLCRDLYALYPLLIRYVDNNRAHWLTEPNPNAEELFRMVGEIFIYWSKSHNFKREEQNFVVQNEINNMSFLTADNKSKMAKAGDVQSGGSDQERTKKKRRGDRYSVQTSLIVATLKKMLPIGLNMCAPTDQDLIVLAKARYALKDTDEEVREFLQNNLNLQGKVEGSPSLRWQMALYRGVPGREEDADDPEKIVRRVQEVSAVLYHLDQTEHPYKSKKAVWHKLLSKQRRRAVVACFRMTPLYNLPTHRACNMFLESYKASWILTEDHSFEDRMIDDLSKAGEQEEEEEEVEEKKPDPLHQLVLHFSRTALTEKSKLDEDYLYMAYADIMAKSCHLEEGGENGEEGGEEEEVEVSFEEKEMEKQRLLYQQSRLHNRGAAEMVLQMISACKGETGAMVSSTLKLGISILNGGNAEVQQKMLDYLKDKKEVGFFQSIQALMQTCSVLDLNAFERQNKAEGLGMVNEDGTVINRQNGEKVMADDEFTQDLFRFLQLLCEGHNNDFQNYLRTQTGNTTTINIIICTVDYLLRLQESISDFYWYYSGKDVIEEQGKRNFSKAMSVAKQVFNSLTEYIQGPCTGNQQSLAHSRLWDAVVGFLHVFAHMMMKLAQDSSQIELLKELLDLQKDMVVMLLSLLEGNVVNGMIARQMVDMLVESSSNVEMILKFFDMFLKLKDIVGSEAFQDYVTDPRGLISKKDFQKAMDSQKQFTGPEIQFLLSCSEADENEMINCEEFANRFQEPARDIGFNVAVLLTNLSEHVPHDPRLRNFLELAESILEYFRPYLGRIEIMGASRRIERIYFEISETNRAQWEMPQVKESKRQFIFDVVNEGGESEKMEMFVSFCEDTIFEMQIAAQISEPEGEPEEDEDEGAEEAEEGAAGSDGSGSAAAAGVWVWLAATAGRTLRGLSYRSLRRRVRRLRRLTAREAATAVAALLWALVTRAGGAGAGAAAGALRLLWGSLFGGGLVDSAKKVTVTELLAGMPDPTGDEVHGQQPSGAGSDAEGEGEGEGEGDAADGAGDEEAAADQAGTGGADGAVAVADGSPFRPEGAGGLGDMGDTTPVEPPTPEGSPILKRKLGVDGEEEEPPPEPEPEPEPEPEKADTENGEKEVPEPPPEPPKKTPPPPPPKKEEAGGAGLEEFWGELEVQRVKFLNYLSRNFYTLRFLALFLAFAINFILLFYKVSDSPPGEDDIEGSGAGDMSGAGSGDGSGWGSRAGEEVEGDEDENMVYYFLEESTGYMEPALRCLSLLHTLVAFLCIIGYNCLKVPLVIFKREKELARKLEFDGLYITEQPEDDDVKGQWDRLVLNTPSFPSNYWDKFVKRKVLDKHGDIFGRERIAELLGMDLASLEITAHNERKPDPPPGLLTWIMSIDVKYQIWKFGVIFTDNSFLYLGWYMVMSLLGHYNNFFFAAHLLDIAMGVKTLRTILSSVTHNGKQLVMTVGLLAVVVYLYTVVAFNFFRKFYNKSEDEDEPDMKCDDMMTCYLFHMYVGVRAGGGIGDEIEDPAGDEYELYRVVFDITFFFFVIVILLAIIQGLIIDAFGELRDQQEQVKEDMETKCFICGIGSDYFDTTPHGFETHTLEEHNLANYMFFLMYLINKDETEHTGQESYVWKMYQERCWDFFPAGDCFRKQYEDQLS

`CC/C=C\C/C=C\C/C=C\C[C@@H]1[C@H](/C=C/C(O)CCC(=O)O)[C@@H](O)C[C@H]1O` (mixture of isomers) [Compound 4F4t-NeuroP, 4(RS)-4-F4t-Neuroprostane]: the “RyR2 mediated Ca2+-leak in cardiomyocytes” value in the series with RyR2 (previous study [30]) was “able to prevent RyR2 mediated Ca^2+-leak in cardiomyocytes”. Further, the “cardiac anti-arrhythmic effect, RyR2 stabilization” value in the series on RyR2 (previously reported (ref. 21)) is given as “the active molecule was not DHA itself but a non-enzymatic metabolite of DHA”. The “prevention of VIDD in murine model” value with mouse diaphragm (VIDD) is “prevent with a high efficiency VIDD”. In addition, the “prevention of VIDD / diaphragm weakness (force-frequency relationship)” value in the series with mouse diaphragm (VIDD) (single IV injection of 4F4t-NeuroP 0.01-100 μM, 6 h MV) was “prevents diaphragm weakness induced after 6 h of mechanical ventilation; also recorded: full prevention of VIDD”. Further, the “concentration giving maximal effect in VIDD prevention” value in the series with mouse diaphragm (VIDD) (single IV injection, dose response 0.01-100 μM, 6 h MV, maximal force at 120 Hz) is listed as “about 0.3 μM”. For the same compound, in series [1], the “distribution of fiber type (slow vs fast)” value was “without changing the distribution of fiber type” and the “muscle fibre atrophy / cross section area (CSA)” value was “prevents diaphragm muscle fibres atrophy after 12 hours of mechanical ventilation independently of the fibre phenotype; also recorded: prevents the reduction of cross section area (CSA), independently of the muscle fiber phenotype”. The “Ca2+-sparks frequency / RyR1-dependent leaky behavior” value at RyR1 is given as “full prevention of this RyR1-dependent leaky behavior”.
With `CC/C=C\C[C@@H]1[C@H](/C=C/C(O)CCC(=O)O)[C@@H](O)C[C@H]1O` (mixture of isomers) [VB558, (E)-6-((1S,2R,3R,5S)-3,5-dihydroxy-2-((Z)-pent-2-en-1-yl)cyclopentyl)-4-hydroxyhex-5-enoic Acid], the Tmax in series [2] (pig, plasma, 0.25 mg/kg, read-out: time of plasmatic peak) lay in the range of 5 to 10 min. Also, the biodistribution result in series [2] was “fast biodistribution”. Besides, the “dissipation of plasmatic peak” value in series [2] is “dissipated rapidly within an hour”. In addition, the “protection against mechanical ventilation (force-frequency relationship)” value in the series with mouse diaphragm (VIDD) (VB558 1 μM, 6 h MV) was “significant protection against mechanical ventilation in a range similar to that was obtained with 4F4t-NeuroP”; in the series on mouse diaphragm (VIDD) (VB558 10 μM, 6 h MV), “significant protection against mechanical ventilation in a range similar to that was obtained with 4F4t-NeuroP”. Moreover, in the series with mouse diaphragm (VIDD), the “prevention of VIDD in murine model” value is recorded as “prevents VIDD; also recorded: prevent with a high efficiency VIDD”. Moreover, the “diastolic level of calcium” value in series [3] (1 μM, without isoproterenol, DMD hIPSc cardiomyocytes) is recorded as “prevented”. Besides, the “RyR2 dysfunction in DMD” value in series [3] (DMD-derived ventricular cardiomyocytes) is listed as “may be prevented”. The “resting calcium under isoproterenol stimulation” value in series [3] (hexanor, Iso 1 μM, DMD hIPSc cardiomyocytes) is given as “full normalization of the resting calcium”. The “significant effect (inhibition or stimulation higher than 50%) at prostanoid receptors” value in the series on prostanoid receptors is on record as “not observed at any of the receptors studied”.
